Source: ChEMBL document CHEMBL1136428, “Structure-activity relationships of novel anti-malarial agents. Part 6: N-(4-arylpropionylamino-3-benzoylphenyl)-[5-(4-nitrophenyl)-2-furyl]acrylic acid amides” (Bioorg Med Chem Lett, 2003)

These compounds were tested on Plasmodium falciparum (assay: Anti-malarial activity against Plasmodium falciparum Dd2).
Type: functional, organism-based

Point of comparison: `O=C(/C=C/c1ccc(-c2ccc([N+](=O)[O-])cc2)o1)Nc1ccc(NC(=O)CCc2ccc(C(F)(F)F)cc2)c(C(=O)c2ccccc2)c1`, IC50 61 nM. Against it:
- O=C(/C=C/c1ccc(-c2ccc([N+](=O)[O-])cc2)o1)Nc1ccc(NC(=O)CCc2ccc([N+](=O)[O-])cc2)c(C(=O)c2ccccc2)c1 — 23-fold higher, 1400 nM
- O=C(/C=C/c1ccc(-c2ccc([N+](=O)[O-])cc2)o1)Nc1ccc(NC(=O)CCc2ccc(Cl)cc2)c(C(=O)c2ccccc2)c1 — 2.1-fold higher, 130 nM
- O=C(/C=C/c1ccc(-c2ccc([N+](=O)[O-])cc2)o1)Nc1ccc(NC(=O)CCc2ccc(O)cc2)c(C(=O)c2ccccc2)c1 — 54-fold higher, 3300 nM
- O=C(/C=C/c1ccc(-c2ccc([N+](=O)[O-])cc2)o1)Nc1ccc(NC(=O)CCc2ccc(F)cc2)c(C(=O)c2ccccc2)c1 — 7.2-fold higher, 440 nM
- CC(C)(C)OC(=O)NC(Cc1ccc(C(F)(F)F)cc1)C(=O)Nc1ccc(NC(=O)/C=C/c2ccc(-c3ccc([N+](=O)[O-])cc3)o2)cc1C(=O)c1ccccc1 (configuration not stated) — 52-fold higher, 3200 nM
- Cc1ccc(CCC(=O)Nc2ccc(NC(=O)/C=C/c3ccc(-c4ccc([N+](=O)[O-])cc4)o3)cc2C(=O)c2ccccc2)cc1 — 7.2-fold higher, 440 nM
- COc1ccc(CCC(=O)Nc2ccc(NC(=O)/C=C/c3ccc(-c4ccc([N+](=O)[O-])cc4)o3)cc2C(=O)c2ccccc2)cc1 — 21-fold higher, 1300 nM
- O=C(/C=C/c1ccc(-c2ccc([N+](=O)[O-])cc2)o1)Nc1ccc(NC(=O)CCc2ccccc2C(F)(F)F)c(C(=O)c2ccccc2)c1 — 18-fold higher, 1100 nM
- O=C(/C=C/c1ccc(-c2ccc([N+](=O)[O-])cc2)o1)Nc1ccc(NC(=O)CCc2cccc(C(F)(F)F)c2)c(C(=O)c2ccccc2)c1 — 10-fold higher, 630 nM
- N[C@@H](Cc1ccccc1)C(=O)Nc1ccc(NC(=O)/C=C/c2ccc(-c3ccc([N+](=O)[O-])cc3)o2)cc1C(=O)c1ccccc1 — 9.5-fold higher, 580 nM
- O=C(/C=C/c1ccc(-c2ccc([N+](=O)[O-])cc2)o1)Nc1ccc(NC(=O)CCc2ccccc2)c(C(=O)c2ccccc2)c1 — 5.1-fold higher, 310 nM
- CC(C)(C)OC(=O)N[C@H](Cc1ccccc1)C(=O)Nc1ccc(NC(=O)/C=C/c2ccc(-c3ccc([N+](=O)[O-])cc3)o2)cc1C(=O)c1ccccc1 — 15-fold higher, 900 nM
- O=C(/C=C/c1ccc(-c2ccc([N+](=O)[O-])cc2)o1)Nc1ccc(NC(=O)CCc2ccc(Br)cc2)c(C(=O)c2ccccc2)c1 — 2.8-fold higher, 170 nM
- NC(Cc1ccc(C(F)(F)F)cc1)C(=O)Nc1ccc(NC(=O)/C=C/c2ccc(-c3ccc([N+](=O)[O-])cc3)o2)cc1C(=O)c1ccccc1 (configuration not stated) — 12-fold higher, 710 nM
- CC(C)(C)OC(=O)N[C@@H](Cc1ccccc1)C(=O)Nc1ccc(NC(=O)/C=C/c2ccc(-c3ccc([N+](=O)[O-])cc3)o2)cc1C(=O)c1ccccc1 — 6.9-fold higher, 420 nM
- N[C@H](Cc1ccccc1)C(=O)Nc1ccc(NC(=O)/C=C/c2ccc(-c3ccc([N+](=O)[O-])cc3)o2)cc1C(=O)c1ccccc1 — 20-fold higher, 1200 nM
